This is an account of results in patent US10227323B2, “Glucosylceramide synthase inhibitors for the treatment of diseases” (BIOMARIN PHARMACEUTICAL INC., priority 2013, dated 2019).

The structures appear in SMILES notation. Where only a bound is given, the exact number is not on record here.

One experiment addresses T1, GCS (Canis lupus familiaris, UniProt A0A8I3MXG6).
T1 sequence (A0A8I3MXG6 1-394): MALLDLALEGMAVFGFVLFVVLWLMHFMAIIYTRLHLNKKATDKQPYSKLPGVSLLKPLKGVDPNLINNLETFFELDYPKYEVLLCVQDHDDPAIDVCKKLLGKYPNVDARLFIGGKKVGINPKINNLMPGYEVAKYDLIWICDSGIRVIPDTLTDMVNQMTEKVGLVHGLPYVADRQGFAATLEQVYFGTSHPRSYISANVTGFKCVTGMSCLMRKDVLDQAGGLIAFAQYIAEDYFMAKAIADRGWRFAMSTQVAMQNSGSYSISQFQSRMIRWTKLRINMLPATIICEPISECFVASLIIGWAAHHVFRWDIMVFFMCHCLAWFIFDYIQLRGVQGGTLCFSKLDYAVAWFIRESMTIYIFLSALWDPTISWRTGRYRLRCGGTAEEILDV
The experiment can be described thus: Assay 1: GCS Enzymatic Assay (MDCK cell lysate, C6-NBD-Ceramide, LC/MS). The experiment is classed as biochemical, canine. Particulars: Table 1; MDCK cell lysate; read-out: IC50 (nM) generated from Assay 1. Put shortly: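 LC/MS/MS measurement of glucosylceramide and NBD-ceramide after a 1 h, 37 °C reaction with 100 μM UDP-glucose and 10 μM C6-NBD-ceramide gave IC50s or percent inhibition.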
In the case of `O=C(N[C@H](CN1CC[C@@H](F)C1)[C@H](O)c1ccc2c(c1)OCCO2)C(F)(F)c1cc2cc(Cl)ccc2o1` [Compound 46, 2-(5-chlorobenzofuran-2-yl)-N-((1R,2R)-1-(2,3-dihydrobenzo[b][1,4]dioxin-6-yl)-3-((1R)-3-fluoropyrrolidin-1-yl)-1-hydroxypropan-2-yl)-2,2-difluoroacetamide], the concentration for half-maximal inhibition (IC50) – broadly, the concentration at which inhibition is half-maximal – lay in the range of 50 to 5000 nM.
Take `Cn1ncc2cc([C@@H](O)[C@@H](CN3CCCC3)NC(=O)C(F)(F)c3cc4cc(Cl)ccc4o3)ccc21` [Compound 49, 2-(5-chlorobenzofuran-2-yl)-2,2-difluoro-N-((1R,2R)-1-hydroxy-1-(1-methyl-1H-indazol-5-yl)-3-(pyrrolidin-1-yl)propan-2-yl)acetamide]: the concentration for half-maximal inhibition (IC50) lay within 50 to 5000 nM.
Regarding `O=C(N[C@H](CN1CCCC1)[C@H](O)c1ccc2c(c1)OCCO2)C(F)(F)C1Cc2ccc(-c3ccccn3)cc2C1` (stereo partly drawn) [Compound 50, N-((1R,2R)-1-(2,3-dihydrobenzo[b][1,4]dioxin-6-yl)-1-hydroxy-3-(pyrrolidin-1-yl)propan-2-yl)-2,2-difluoro-2-(5-(pyridin-2-yl)-2,3-dihydro-1H-inden-2-yl)acetamide], the IC50 was under 50 nM.
With `O=C(N[C@H](CN1CC2CCC1C2)[C@H](O)c1ccc2c(c1)OCCO2)C(F)(F)c1cc2cc(Cl)ccc2o1` (stereo partly drawn) [Compound 51, N-((1R,2R)-3-(2-azabicyclo[2.2.1]heptan-2-yl)-1-(2,3-dihydrobenzo[b][1,4]dioxin-6-yl)-1-hydroxypropan-2-yl)-2-(5-chlorobenzofuran-2-yl)-2,2-difluoroacetamide], the IC50 is under 50 nM.
As to `O=C(N[C@H](CN1CCCC1)[C@H](O)c1ccc(OC2CC2)c(Cl)c1)C(F)(F)CCc1ccc2ccccc2c1` [Compound 52, N-((1R,2R)-1-(3-chloro-4-cyclopropoxyphenyl)-1-hydroxy-3-(pyrrolidin-1-yl)propan-2-yl)-2,2-difluoro-4-(naphthalen-2-yl)butanamide], the 50% inhibitory concentration (IC50) was under 50 nM.
Turning to `O=C(N[C@H](CN1C2CCC1CC2)[C@H](O)c1ccc2c(c1)OCCO2)C(F)(F)c1cc2cc(Cl)ccc2o1` [Compound 53, N-((1R,2R)-3-(7-azabicyclo[2.2.1]heptan-7-yl)-1-(2,3-dihydrobenzo[b][1,4]dioxin-6-yl)-1-hydroxypropan-2-yl)-2-(5-chlorobenzofuran-2-yl)-2,2-difluoroacetamide], the half-maximal inhibitory concentration (IC50) was under 50 nM.
The same measure, in the same setting: for `COc1ccc([C@@H](O)[C@@H](CN2CCCC2)NC(=O)C(F)(F)c2cc3cc(Cl)ccc3o2)cn1` [Compound 56, 2-(5-chlorobenzofuran-2-yl)-2,2-difluoro-N-((1R,2R)-1-hydroxy-1-(6-methoxypyridin-3-yl)-3-(pyrrolidin-1-yl)propan-2-yl)acetamide] the value was under 50 nM; for `[2H][C@@](O)(c1ccc2c(c1)OCCO2)[C@@H](CN1CCCC1)NC(=O)C(F)(F)c1cc2cc(Cl)ccc2o1` [Compound 57, 2-(5-chlorobenzofuran-2-yl)-N-((1R,2R)-1-(2,3-dihydrobenzo[b][1,4]dioxin-6-yl)-1-deutero-1-hydroxy-3-(pyrrolidin-1-yl)propan-2-yl)-2,2-difluoroacetamide], under 50 nM; for `O=C(N[C@H](CN1CCCC1)C(O)c1ccc2c(c1)OCCO2)C(F)(F)c1cc2cc(Cl)ccc2o1` (stereo partly drawn) [Compound 57B, N-[2-(2H,3H-benzo[e]1,4-dioxan-6-yl)(1R)-2-hydroxy-1-(pyrrolidinylmethyl)ethyl]-2-(5-chlorobenzo[d]furan-2-yl)-2,2-difluoroacetamide], under 50 nM.
Regarding `COc1ccc([C@@H](O)[C@@H](CN2CCCC2)NC(=O)C(F)(F)c2cc3cc(Cl)ccc3o2)cc1C(F)F` [Compound 59, 2-(5-chlorobenzofuran-2-yl)-N-((1R,2R)-1-(3-(difluoromethyl)-4-methoxyphenyl)-1-hydroxy-3-(pyrrolidin-1-yl)propan-2-yl)-2,2-difluoroacetamide], the IC50 was 50 to 5000 nM.
On to `[2H]C([2H])(C(=O)N[C@H](CN1CCCC1)[C@H](O)c1ccc2c(c1)OCCO2)c1cc2cc(Cl)ccc2o1` [Compound 60, 2-(5-chlorobenzofuran-2-yl)-N-((1R,2R)-1-(2,3-dihydrobenzo[b][1,4]dioxin-6-yl)-1-hydroxy-3-(pyrrolidin-1-yl)propan-2-yl)-2,2-dideutero-acetamide], for which the IC50 was under 50 nM.
In the case of `O=C(N[C@H](CN1CCCC1)[C@H](O)c1ccc2c(c1)OCCO2)C(F)(F)C1Cc2ccc(Cl)cc2C1` (stereo partly drawn) [Compound 63, 2-(5-chloro-2,3-dihydro-1H-inden-2-yl)-N-((1R,2R)-1-(2,3-dihydrobenzo[b][1,4]dioxin-6-yl)-1-hydroxy-3-(pyrrolidin-1-yl)propan-2-yl)-2,2-difluoroacetamide], the IC50 is under 50 nM.
As for `O=C(N[C@H](CN1CCCC1)[C@H](O)c1cc(F)c2c(c1)OCCO2)C(F)(F)c1cc2cc(Cl)ccc2o1` [Compound 64, 2-(5-chlorobenzofuran-2-yl)-2,2-difluoro-N-((1R,2R)-1-(8-fluoro-2,3-dihydrobenzo[b][1,4]dioxin-6-yl)-1-hydroxy-3-(pyrrolidin-1-yl)propan-2-yl)acetamide], the 50% inhibitory concentration (IC50) is under 50 nM.
Take `O=C(N[C@H](CN1CCCC1)[C@H](O)c1cc(Cl)c2c(c1)OCCO2)C(F)(F)c1cc2cc(Cl)ccc2o1` [Compound 65, N-((1R,2R)-1-(8-chloro-2,3-dihydrobenzo[b][1,4]dioxin-6-yl)-1-hydroxy-3-(pyrrolidin-1-yl)propan-2-yl)-2-(5-chlorobenzofuran-2-yl)-2,2-difluoroacetamide]: the IC50 was under 50 nM.

The experiment is the same for the next values; noted with them: Table 1; values marked *; MDCK cell lysate.
On to `O=C(N[C@H](CN1CCCC1)[C@@H](O)c1ccc(OC2CC2)c(Cl)c1)C(F)(F)c1cc2cc(Cl)ccc2o1` [Compound 44H, N-((1S,2R)-1-(3-chloro-4-cyclopropoxyphenyl)-1-hydroxy-3-(pyrrolidin-1-yl)propan-2-yl)-2-(5-chlorobenzofuran-2-yl)-2,2-difluoroacetamide], for which the “% inhibition generated from Assay 1” value is “B* (the compound had a % inhibition of greater than or equal to about 3% but less than about 50%)”.
For `O=C(N[C@H](CN1CC2(CCC2)C1)[C@H](O)c1ccc2c(c1)OCCO2)C(F)(F)c1cc2cc(Cl)ccc2o1` [Compound 48, 2-(5-chlorobenzofuran-2-yl)-N-((1R,2R)-1-(2,3-dihydrobenzo[b][1,4]dioxin-6-yl)-1-hydroxy-3-(2-azaspiro[3.3]heptan-2-yl)propan-2-yl)-2,2-difluoroacetamide], the “% inhibition generated from Assay 1” value is reported as “B* (the compound had a % inhibition of greater than or equal to about 3% but less than about 50%)”.
Regarding `Cn1ncc2ccc([C@@H](O)[C@@H](CN3CCCC3)NC(=O)C(F)(F)c3cc4cc(Cl)ccc4o3)cc21` [Compound 54, 2-(5-chlorobenzofuran-2-yl)-2,2-difluoro-N-((1R,2R)-1-hydroxy-1-(1-methyl-1H-indazol-6-yl)-3-(pyrrolidin-1-yl)propan-2-yl)acetamide], the “% inhibition generated from Assay 1” value is “B* (the compound had a % inhibition of greater than or equal to about 3% but less than about 50%)”.
Regarding `Cn1ncc2ccc([C@H](O)[C@@H](CN3CCCC3)NC(=O)C(F)(F)c3cc4cc(Cl)ccc4o3)cc21` [Compound 54G, 2-(5-chlorobenzofuran-2-yl)-2,2-difluoro-N-((1S,2R)-1-hydroxy-1-(1-methyl-1H-indazol-6-yl)-3-(pyrrolidin-1-yl)propan-2-yl)acetamide], the “% inhibition generated from Assay 1” value is reported as “B* (the compound had a % inhibition of greater than or equal to about 3% but less than about 50%)”.
Take `[2H][C@](O)(c1ccc2c(c1)OCCO2)[C@@H](CN1CCCC1)NC(=O)C(F)(F)c1cc2cc(Cl)ccc2o1` [Compound 57C, 2-(5-chlorobenzofuran-2-yl)-N-((1S,2R)-1-(2,3-dihydrobenzo[b][1,4]dioxin-6-yl)-1-deutero-1-hydroxy-3-(pyrrolidin-1-yl)propan-2-yl)-2,2-difluoroacetamide]: the “% inhibition generated from Assay 1” value is reported as “B* (the compound had a % inhibition of greater than or equal to about 3% but less than about 50%)”.
As to `COc1ccc([C@H](O)[C@@H](CN2CCCC2)NC(=O)C(F)(F)c2cc3cc(Cl)ccc3o2)cc1C(F)F` [Compound 59I, 2-(5-chlorobenzofuran-2-yl)-N-((1S,2R)-1-(3-(difluoromethyl)-4-methoxyphenyl)-1-hydroxy-3-(pyrrolidin-1-yl)propan-2-yl)-2,2-difluoroacetamide], the “% inhibition generated from Assay 1” value is recorded as “B* (the compound had a % inhibition of greater than or equal to about 3% but less than about 50%)”.
With `O=C(N[C@H](CN1CCCC1)[C@H](O)c1cc2c(cc1Br)OCCO2)C(F)(F)c1cc2cc(Cl)ccc2o1` [Compound 61, N-((1R,2R)-1-(7-bromo-2,3-dihydrobenzo[b][1,4]dioxin-6-yl)-1-hydroxy-3-(pyrrolidin-1-yl)propan-2-yl)-2-(5-chlorobenzofuran-2-yl)-2,2-difluoroacetamide], the “% inhibition generated from Assay 1” value is “B* (the compound had a % inhibition of greater than or equal to about 3% but less than about 50%)”.
The same measure, in the same setting: the same measure for `CC1(C)CN(C[C@@H](NC(=O)C(F)(F)c2cc3cc(Cl)ccc3o2)[C@H](O)c2ccc3c(c2)OCCO3)C1` [Compound 62, 2-(5-chlorobenzofuran-2-yl)-N-((1R,2R)-1-(2,3-dihydrobenzo[b][1,4]dioxin-6-yl)-3-(3,3-dimethylazetidin-1-yl)-1-hydroxypropan-2-yl)-2,2-difluoroacetamide]: “B* (the compound had a % inhibition of greater than or equal to about 3% but less than about 50%)”.
